Assay results reported in patent publication US8163793B2, “Proline derivatives” (Hoffman-La Roche Inc., priority 2009, dated 2012).
Counter-ions that a name gives are not always drawn.

Assays:
Cathepsin S = Cathepsin S (UniProt P25774); assay: Cathepsin enzyme inhibition assay (fluorogenic peptide substrate Z-Val-Val-Arg-AMC), Cathepsin S; assay type: biochemical, human and mouse; details: enzyme 1 nM, substrate 20 μM, pH 6.5; read-out: CatS IC50
Procedure, shortened: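 Compounds were combined with 1 nM human or mouse enzyme, and substrate then started the reaction. The buffer was potassium phosphate (100 mM, pH 6.5) containing EDTA-Na 5 mM, Triton X-100 0.001% and […] 5 mM.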

Cat L = Cat L (UniProt P07711); assay: Cathepsin enzyme inhibition assay (fluorogenic peptide substrate Z-Val-Val-Arg-AMC), Cathepsin L; assay type: biochemical, human and mouse; details: enzyme 1 nM, substrate 20 μM, pH 6.5; read-out: CatL IC50
Procedure, shortened: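 Fluorogenic cleavage of Z-Val-Val-Arg-AMC (20 μM) by 1 nM Cat L was monitored at ex 360/em 465 nm for 20 min, the linear phase. The buffer was 100 mM potassium phosphate pH 6.5 with 5 mM EDTA and DTT. IC50 values were derived by standard methods, in μM.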

IC50 (Cathepsin S) [µM] | IC50 (Cat L) [µM] | Compound
0.000465 | 21.1 | Cc1cc(N2C[C@H](S(=O)(=O)c3ccccc3C(F)(F)F)C[C@H]2C(=O)NC2(C#N)CC2)n(-c2cccc(Cl)c2)n1 [Example 233, (2S,4R)-1-[2-(3-Chloro-phenyl)-5-methyl-2H-pyrazol-3-yl]-4-(2-trifluoromethyl-benzenesulfonyl)-pyrrolidine-2-carboxylic acid (1-cyano-cyclopropyl)-amide]
0.0038 | 35 | CC(=O)N1C[C@H](S(=O)(=O)c2ccc(OC(C)C(F)(F)F)cc2Cl)C[C@H]1C(=O)NC1(C#N)CC1 (stereo partly drawn) [Example 132, (2S,4R)-1-Acetyl-4-[2-chloro-4-(2,2,2-trifluoro-1-methyl-ethoxy)-benzenesulfonyl]-pyrrolidine-2-carboxylic acid (1-cyano-cyclopropyl)-amide]
0.00018 | 1.05 | N#CC1(NC(=O)[C@@H]2C[C@@H](S(=O)(=O)c3ccc(OCC(F)(F)F)cc3Cl)CN2C(=O)C2(c3cccc(Cl)c3)CC2)CC1 [Example 331, (2S,4R)-1-[1-(3-Chloro-phenyl)-cyclopropanecarbonyl]-4-[2-chloro-4-(2,2,2-trifluoro-ethoxy)-benzenesulfonyl]-pyrrolidine-2-carboxylic acid (1-cyano-cyclopropyl)-amide]
0.011 | ≥ 25 | CC(C)(C)OC(=O)N1C[C@H](S(=O)(=O)c2ccc(-n3ccnc3)cc2)C[C@H]1C(=O)NC1(C#N)CC1 [Example 3, (2S,4R)-2-(1-Cyano-cyclopropylcarbamoyl)-4-(4-imidazol-1-yl-benzenesulfonyl)-pyrrolidine-1-carboxylic acid tert-butyl ester]
0.00042 | 17.6 | CC(C)C(=O)N1C[C@H](S(=O)(=O)c2ccc(OCC(F)(F)F)cc2Cl)C[C@H]1C(=O)NC1(C#N)CC1 [Example 179, (2S,4R)-4-[2-Chloro-4-(2,2,2-trifluoro-ethoxy)-benzenesulfonyl]-1-isobutyryl-pyrrolidine-2-carboxylic acid (1-cyano-cyclopropyl)-amide]
0.0006 | 15.6 | N#CC1(NC(=O)[C@@H]2C[C@@H](S(=O)(=O)c3ccc(Cl)cc3Cl)CN2C(=O)CC(F)(F)F)CC1 [Example 227, (2S,4R)-4-(2,4-Dichloro-benzenesulfonyl)-1-(3,3,3-trifluoro-propionyl)-pyrrolidine-2-carboxylic acid (1-cyano-cyclopropyl)-amide]
0.0031 | 3.67 | Cc1cc(N2C[C@H](S(=O)(=O)c3ccccc3Cl)C[C@H]2C(=O)NC2(C#N)CC2)n(C2CCOCC2)n1 [Example 478, (2S,4R)-4-(2-Chloro-benzenesulfonyl)-1-[5-methyl-2-(tetrahydro-pyran-4-yl)-2H-pyrazol-3-yl]-pyrrolidine-2-carboxylic acid (1-cyano-cyclopropyl)-amide]
0.00175 | ≥ 25 | N#CC1(NC(=O)[C@@H]2C[C@@H](S(=O)(=O)c3ccc(OCC(F)(F)F)cc3Cl)CN2C(=O)Oc2ccc(Cl)cc2)CC1 [Example 252, (2S,4R)-4-[2-Chloro-4-(2,2,2-trifluoro-ethoxy)-benzenesulfonyl]-2-(1-cyano-cyclopropylcarbamoyl)-pyrrolidine-1-carboxylic acid 4-chloro-phenyl ester]
0.0008 | ≥ 25 | CC(C)(C)OC(=O)N1C[C@H](S(=O)(=O)c2ccc(OCC(F)(F)F)cc2C(F)(F)F)C[C@H]1C(=O)NC1(C#N)CC1 [Example 208, (2S,4R)-2-(1-Cyano-cyclopropylcarbamoyl)-4-[4-(2,2,2-trifluoro-ethoxy)-2-trifluoromethyl-benzenesulfonyl]-pyrrolidine-1-carboxylic acid tert-butyl ester]
0.0002 | 8.25 | N#CC1(NC(=O)[C@@H]2C[C@@H](S(=O)(=O)c3ccccc3Cl)CN2C(=O)C2CCCCC2)CC1 [Example 77, (2S,4R)-4-(2-Chloro-benzenesulfonyl)-1-cyclohexanecarbonyl-pyrrolidine-2-carboxylic acid (1-cyano-cyclopropyl)-amide]
0.0004 | 16.6 | Cc1cc(N2C[C@H](S(=O)(=O)c3ccccc3C(F)(F)F)C[C@H]2C(=O)NC2(C#N)CC2)n(-c2ccc(Cl)cc2)n1 [Example 194, (2S,4R)-1-[2-(4-Chloro-phenyl)-5-methyl-2H-pyrazol-3-yl]-4-(2-trifluoromethyl-benzenesulfonyl)-pyrrolidine-2-carboxylic acid (1-cyano-cyclopropyl)-amide]
0.000555 | 18.8 | N#CC1(NC(=O)[C@@H]2C[C@@H](S(=O)(=O)c3ccccc3C(F)(F)F)CN2c2cc(C3CC3)nn2C2CCC2)CC1 [Example 398, (2S,4R)-1-(2-Cyclobutyl-5-cyclopropyl-2H-pyrazol-3-yl)-4-(2-trifluoromethyl-benzenesulfonyl)-pyrrolidine-2-carboxylic acid (1-cyano-cyclopropyl)-amide]
0.152 | ≥ 25 | CC(C)(C#N)NC(=O)[C@@H]1C[C@@H](S(=O)(=O)c2ccccc2Cl)CN1 [Example 44, (2S,4R)-4-(2-Chloro-benzenesulfonyl)-pyrrolidine-2-carboxylic acid (cyano-dimethyl-methyl)-amide Hydrochloride]
0.00165 | 13 | Cc1cc(N2C[C@H](S(=O)(=O)c3ccccc3C(F)(F)F)C[C@H]2C(=O)NC2(C#N)CC2)n(CCc2ccccc2)n1 [Example 337, (2S,4R)-1-(5-Methyl-2-phenethyl-2H-pyrazol-3-yl)-4-(2-trifluoromethyl-benzenesulfonyl)-pyrrolidine-2-carboxylic acid (1-cyano-cyclopropyl)-amide]
0.004 | 1.62 | Cc1cc(N2C[C@H](S(=O)(=O)c3ccccc3Cl)C[C@H]2C(=O)NC2(C#N)CC2)n(Cc2ccc(Cl)cc2)n1 [Example 418, (2S,4R)-4-(2-Chloro-benzenesulfonyl)-1-[2-(4-chloro-benzyl)-5-methyl-2H-pyrazol-3-yl]-pyrrolidine-2-carboxylic acid (1-cyano-cyclopropyl)-amide]
0.0032 | ≥ 25 | N#CC1(NC(=O)[C@@H]2C[C@@H](S(=O)(=O)c3ccc(-n4ccnc4)cc3)CN2)CC1 [Example 14, (2S,4R)-4-(4-Imidazol-1-yl-benzenesulfonyl)-pyrrolidine-2-carboxylic acid (1-cyano-cyclopropyl)-amide Hydrochloride]
0.000657 | 1.76 | COc1ccc(S(=O)(=O)[C@@H]2C[C@@H](C(=O)NC3(C#N)CC3)N(c3cc(C)nn3Cc3ccccc3)C2)c(Cl)c1 [Example 376, (2S,4R)-1-(2-Benzyl-5-methyl-2H-pyrazol-3-yl)-4-(2-chloro-4-methoxy-benzenesulfonyl)-pyrrolidine-2-carboxylic acid (1-cyano-cyclopropyl)-amide]
0.0062 | ≥ 25 | CC(=O)N1C[C@H](S(=O)(=O)c2ccc(F)cc2Cl)C[C@H]1C(=O)NC1(C#N)CC1 [Example 134, (2S,4R)-1-Acetyl-4-(2-chloro-4-fluoro-benzenesulfonyl)-pyrrolidine-2-carboxylic acid (1-cyano-cyclopropyl)-amide]
0.000455 | 12.3 | N#CC1(NC(=O)[C@@H]2C[C@@H](S(=O)(=O)c3ccc(OCC(F)(F)F)cc3Cl)CN2C(=O)C2(C#N)CC2)CC1 [Example 243, (2S,4R)-4-[2-Chloro-4-(2,2,2-trifluoro-ethoxy)-benzenesulfonyl]-1-(1-cyano-cyclopropanecarbonyl)-pyrrolidine-2-carboxylic acid (1-cyano-cyclopropyl)-amide]
0.0037 | 16.5 | N#CC1(NC(=O)[C@@H]2C[C@@H](S(=O)(=O)c3ccc(OC4COC4)cc3Cl)CN2)CC1 [Example 181, (2S,4R)-4-[2-Chloro-4-(oxetan-3-yloxy)-benzenesulfonyl]-pyrrolidine-2-carboxylic acid (1-cyano-cyclopropyl)-amide]
0.07 | 4.41 | N#CC1(NC(=O)[C@@H]2C[C@@H](S(=O)(=O)c3ccccc3Cl)CN2C(=O)C2(Oc3ccc(Cl)cc3)CC2)CC1 [Example 473, (2S,4R)-4-(2-Chloro-benzenesulfonyl)-1-[1-(4-chloro-phenoxy)-cyclopropanecarbonyl]-pyrrolidine-2-carboxylic acid (1-cyano-cyclopropyl)-amide]
0.0022 | ≥ 25 | N#CC1(NC(=O)[C@@H]2C[C@@H](S(=O)(=O)c3ccccc3C(F)(F)F)CN2)CC1 [Example 43, (2S,4R)-4-(2-Trifluoromethyl-benzenesulfonyl)-pyrrolidine-2-carboxylic acid (1-cyano-cyclopropyl)-amide]
0.0013 | ≥ 25 | N#CC1(NC(=O)[C@@H]2C[C@@H](S(=O)(=O)c3ccc(-n4cccn4)cc3C(F)(F)F)CN2)CC1 [Example 19, (2S,4R)-4-(4-Pyrazol-1-yl-2-trifluoromethyl-benzenesulfonyl)-pyrrolidine-2-carboxylic acid (1-cyano-cyclopropyl)-amide hydrochloride]
0.0012 | 21 | COCC(=O)N1C[C@H](S(=O)(=O)c2ccccc2Cl)C[C@H]1C(=O)NCC#N [Example 62, (2S,4R)-4-(2-Chloro-benzenesulfonyl)-1-(2-methoxy-acetyl)-pyrrolidine-2-carboxylic acid cyanomethyl-amide]
